{
  "source": "patent US7754896B2",
  "about": "“Indol-alanine derivatives as selective S1P4-agonists” (Novartis AG, priority 2004, dated 2010)",
  "target": "T1, S1P5 (Homo sapiens, UniProt Q9H228)",
  "T1 construct": "expressed in transfected cells",
  "T1 sequence (Q9H228 whole entry)": "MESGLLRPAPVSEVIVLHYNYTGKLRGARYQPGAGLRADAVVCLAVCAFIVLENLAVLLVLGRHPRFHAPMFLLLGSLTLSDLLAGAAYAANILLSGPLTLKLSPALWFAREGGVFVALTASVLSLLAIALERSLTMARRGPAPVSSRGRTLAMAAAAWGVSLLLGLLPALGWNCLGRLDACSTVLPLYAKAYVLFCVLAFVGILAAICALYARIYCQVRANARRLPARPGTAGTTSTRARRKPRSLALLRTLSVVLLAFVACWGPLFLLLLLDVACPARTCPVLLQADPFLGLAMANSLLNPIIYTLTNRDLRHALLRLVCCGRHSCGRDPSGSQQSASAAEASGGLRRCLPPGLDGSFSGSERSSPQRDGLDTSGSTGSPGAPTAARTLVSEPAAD",
  "assay": "GTPγS binding assay, S1P5",
  "assay_type": "biochemical",
  "conditions": "CHO cells expressing S1P5",
  "from_the_text": "The human S1P5 (GI: 30171332 or GenBank™ accession number AY262689, TREMBL: Q9H228) is cloned by a PCR based method. Lung and spleen cDNA (marathon cDNA) is obtained from BD Biosciences Chlontech (BD Biosciences Chlontech, Palo Alto, Calif. 94303, USA); genomic DNA is isolated from HeLa cells using standard procedures. Following oligonucleotides are used for the PCR reaction: forward primer CACCATGGAGTCGGGGCTGCTGCG (−4 to 20, GenBank™ accession number AY262689) and reverse primer 5′-TCAGTCTGCAGCCGGTTCTGATACCAGAGTC (1197 to 1131, AY262689), the initiation of the translation (ATG) and the stop codon are underlined. The PCR is performed In the presence of 0.2-0.4 μg cDNA, 1× reaction buffer (10× PfuTurbo DNA polymerase buffer, Stratagene, La Jolla, Calif. 92037, USA), 0.5 μM primers, 0.25 mM dNTP's and 2.5 units PfuTurbo DNA polymerase (Stratagene), a first step at 95° C. for 2 min, 30 cycles (30 sec at 95° C., 30 sec at 60° C. and 90 sec at 72° C.) and final step of 10 min at 72° C. The amplified product of around 1100 bp is analyzed by standard agarose gel-electrophoresis. […]\nMembrane proteins are prepared from wild type CHO-K1 and the CHO cell clones expressing human S1P4. […] The protein concentration is determined using the Bio Rad Protein Assay and human IgG as standard. […]",
  "data": [
    {"smiles": "NC(CNC(=O)c1cc2c(-c3ccccc3Cc3ccccc3)cccc2[nH]1)C(=O)O", "note": "(stereo not shown) [Example 2]", "values": [
      {"measurement": "EC50", "result": "> 10", "unit": "µM"}
    ]}
  ]
}
